From US20100298437A1, “USE OF CITRULLINE FOR TREATING UNDERNUTRITION CONDITIONS” (UNIVERSITE RENE DESCARTES-PARIS 5, priority 2006, published 2010)

Columns and labels:
[1] = system: P70S6kinase; test: In vivo activation of the mTOR pathway: P70S6kinase by Western Blot in tibialis muscles of undernourished aged rats; parameters: species or system rat; details: tibialis muscle
Method: Treatment of animals: Forty male Sprague-Dawley rats aged 19 months (Charles River, L'Arbresle, France) were used. During an acclimatization period of 2 weeks the animals were fed ad libitum with a standard diet (UARA04, Usine d'Alimentation Rationnelle, Villemoisson-sur-Orge). Measurement of the spontaneous ingesta was carried out regularly. After this period 30 rats were subjected to a 50% dietary restriction during 12 weeks. Sacrificing 10 rats, used as a control group (group R), was carried out at the end of the dietary restriction period. The other 20 animals were again fed during one week before being sacrificed. Isonitrogen and isocaloric diets were either a standard diet enriched with citrulline 5 g/kg/d (n=10, group R+CIT), or a standard diet enriched with non essential amino acids (Ala, Gly, His, Asp, Ser in an equimolar ratio) (n=10, group R+AANE). Ten rats make up the control group (A.L); they are fed ad libitum all along the study before being sacrificed. Then the rats are sacrificed. The tibialis muscles are taken and quickly frozen in liquid nitrogen, then stored at −80° C. until analysis.
Extraction of proteins and titration: The muscles are ground in liquid nitrogen with a mortar. The thus obtained powder is weighed, and then taken again in 10 volumes of a solubilization buffer containing a cocktail of phosphatase and protease inhibitors. […]

[2] = system: epitrochlearis; test: Muscle protein synthesis (FSR) measured in vitro on isolated incubated muscle; parameters: species or system rat; details: for increase of muscle protein synthesis (FSR): isolated muscle of undernourished adult rats, 2.5 mM citrulline, 2 hours incubation, versus control without citrulline
Method: Treatment of animals: Male Sprague-Dawley rats (Charles River Laboratoires, L'Arbresles, France) aged 3 months (n=20) are placed in individual cages in a thermostated atmosphere (23°±1° C.), and subjected to a 12 hr light/dark cycle (dark between 8 a.m.-8 p.m.).
Acclimatization of the rats is carried out during 2 weeks, during which the spontaneous food consumption is measured. The rats are fed a standard diet (A04, UAR, Villemoisson-sur-Orge, France) containing 17% proteins, 3% lipids, 59% carbohydrates and 21% water, fibers, vitamins and minerals. The average dietary intake during this period is 28 g/day for adult rats.
At the end of the acclimatization period, the rats are randomized in 2 groups: a control group made up of rats which are fed ad libitum (AL), and a group which is subjected to dietary restrictions during the same period: the rats are fed at a rate of 50% of spontaneous ingesta during 6 weeks with a 5% protein diet (Walrand S, Chambon-Savanovitch C, Felgines C, Chassagne J, Raul F, Normand B et al. Aging: a barrier to renutrition? Nutritional and immunologic evidence in rats. Am J Clin Nutr 2000; 72:816-824).
Incubated isolated muscles. Muscles were incubated according to a method which had been used previously (Minet-Quinard R, Moinard C, Villie F, Vasson M P, Cynober L. Metabolic pathways implicated in the kinetic impairment of muscle glutamine homeostasis in adult and old glucocorticoid-treated rats. Am J Physiol Endocrinol Metab 2004; 287:E671-E676). Epitrochlearis is used because it is the most suitable for this type of study. […] At the end of the incubation, the muscles are collected and kept at −80° C. until the incorporation of ^13C-phenylalanine is measured by mass spectrometry in order to determine the Fractional Protein Synthesis (FSR) (Guillet C, Boirie Y, Walrand S. An integrative approach to in-vivo protein synthesis measurement: from whole tissue to specific proteins. Curr Opin Clin Nutr Metab Care 2004; 7:531-538). […]

[3] = undernourished aged rats, former studies of the inventors; cited from earlier work
[4] = system: epitrochlearis; test: Metabolism of citrulline by isolated incubated muscle (amino acids titrated in incubation medium); format: in vitro ADME, rat; details: isolated muscle of healthy or undernourished adult rats, no metabolically linked amino acid released in incubation medium (results not shown)
Method: Incubated isolated muscles. Muscles were incubated according to a method which had been used previously (Minet-Quinard R, Moinard C, Villie F, Vasson M P, Cynober L. Metabolic pathways implicated in the kinetic impairment of muscle glutamine homeostasis in adult and old glucocorticoid-treated rats. Am J Physiol Endocrinol Metab 2004; 287:E671-E676). Epitrochlearis is used because it is the most suitable for this type of study. After dissection, the epitrochlearis are incubated in 3 mL Krebs-Ringer buffer (119 mM NaCl; 4.8 mM KCl; 1.25 mM MgSO4; 25 mM NaHCO3; 1.24 mM NaHPO4; 1.0 mM CaCl2; 2 mM HEPES, pH 7.4), also containing glucose (8 mM), insulin (0.01 U/ml) and bovine serum albumin (BSA) (0.1% p/v). The muscles are pre-incubated during 30 minutes at 37° C. with 95% O2: 5% CO2. The muscles are then transferred into a tube containing 3 mL incubation medium (with ^13C-phenylalanine (1 mM) with or without 2.5 mM citrulline), and are incubated during 2 hours. At the end of the incubation, the muscles are collected and kept at −80° C. until the incorporation of ^13C-phenylalanine is measured by mass spectrometry in order to determine the Fractional Protein Synthesis (FSR) (Guillet C, Boirie Y, Walrand S. An integrative approach to in-vivo protein synthesis measurement: from whole tissue to specific proteins. Curr Opin Clin Nutr Metab Care 2004; 7:531-538). […]

[5] = enteral administration, rats with intestinal insufficiency; from FR 03 08349; cited from earlier work

NC(=O)NCCC[C@H](N)C(=O)O [L-citrulline]
activity of P70S6 kinase as compared with group R ([1]; 12 weeks 50% dietary restriction, then one week diet enriched with citrulline 5 g/kg/d): +417%
activity of P70S6 kinase compared with control group A.L. (in words) ([1]; dietary restriction, then one week enriched diet): not being significantly different
increase of muscle protein synthesis (FSR) [2]: +27%
increase of muscle protein synthesis (FSR) ([2]; listed as citrulline): up to 30%
effect on protein synthesis ([2]; isolated muscles of healthy adult rats, citrulline added in vitro): no effect
protein synthesis level [3]: restore a protein synthesis level which is equivalent to the baseline protein synthesis level among healthy aged rats
metabolism of citrulline by the muscle ([4]; listed as Citrulline): not metabolized
metabolism of citrulline by the muscle ([4]; listed as citrulline): no capacity to metabolize
body weight [5]: allowed these rats to take on weight again
